Data set [1] in a line: Particle size distribution, MALVERN MASTERSIZER 3000, Aero S dry dispersion method at 4 Bar. It is filed as physicochemical. As to conditions: unmicronised source powder. On the procedure:
The particle size distribution for unmicronised glycopyrrolate was determined by MALVERN MASTERSIZER analysis (MALVERN MASTERSIZER® 3000, using the Aero S dry dispersion method at 4 Bar) and found to be D10=11.3 μm, D50=98.0 μm, D90=281 μm (see FIG. 1).
The particle size distributions for Formulation 1 (D10=0.283 μm, D50=1.66 μm, D90=5.40 μm) and Formulation 2 (D10=0.270 μm, D50=1.41 μm, D90=3.66 μm were determined by MALVERN MASTERSIZER® analysis (MALVERN MASTERSIZER® 3000, using the Aero S dry dispersion method at 4 Bar). These are reported in FIGS. 4 and 8 respectively and Table 1 below.
The particle size distribution for the micronized glycopyrrolate formulations was determined by MALVERN MASTERSIZER® analysis (MALVERN MASTERSIZER® 3000, using the Aero S dry dispersion method at 4 Bar and a feed rate of between 30-40%). The optical properties used included a refractive index of 1.52 and an absorption value of 1.0.

Data set [2] in a line: Particle size distribution, MALVERN MASTERSIZER 3000, Hydro MV wet dispersion (wet analysis). It is filed as physicochemical. The note with it: wet analysis method; starting material before milling. The protocol:
The particle size distribution for the micronized glycopyrrolate formulations was determined by MALVERN MASTERSIZER® 3000 using the Hydro MV wet dispersion unit as follows: the dispersion unit was filled with iso-octane (2,2,4-trimethylpentane). The pump speed was set to 3000 rpm. Ten millilitres of 0.1% lecithin in iso-octane was added to approximately 10 mg of the micronized glycopyrrolate formulation, this pre-dispersion was then sonicated for 3 minutes using a Sonopuls sonic probe at 50% intensity. The dispersed particles were added to the dispersion unit to reach an obscuration of 5-15%. The optical properties used included a refractive index of 1.52 and an absorption value of 1.0 for the glycopyrrolate, and a refractive index of 1.45 and an absorption value of 1.0 for the magnesium stearate and a refractive index of 1.391 for the iso-octane. Six replicates were performed per measurement.

In data set [1], `C[N+]1(C)CCC(OC(=O)C(O)(c2ccccc2)C2CCCC2)C1` (stereo not shown) [unmicronised glycopyrrolate, glycopyrrolate] had a D10 of 11.3 μm, a D50 of 98.0 μm and a D90 of 281 μm. Further, the “cumulative fraction under 5 μm” value in data set [1] (stored sealed) was 4.68%. In data set [2], this molecule had a D10 of 20.6 μm, a D50 of 148.7 μm and a D90 of 409.7 μm.

In data set [2], magnesium stearate displayed a D10 of 2.8 μm, a D50 of 8.8 μm and a D90 of 27.4 μm.
